pEC50: −log10 of the molar value.
Assays:
[1] = tested on: HCV 1b replicon; experiment: HCV GT1b replicon assay in Huh-7 cells; type: cell-based, Hepatitis C virus; details: Hepatitis C virus; Huh-7 cells transfected with HCV replicon, 72 hours incubation; read-out: EC50 against HCV 1b genotype
Protocol: (§1) HCV Replicon System was utilized as an evaluation model in the present disclosure for verifying the effects of the compounds disclosed herein on HCV. An HCV Replicon assay was first described in Science, 1999, 285 (5424), 110-3. […] To determine the potential anti-HCV effects of the test compounds, luciferase assay and antibiotic Neomycin resistance gene were tested according to the method described in Science. 1999 Jul. 2; 285 (5424), 110-3 and J. Virol. 2003 March; 77 (5), 3007-19.
(§2) In a word, the compounds disclosed herein were tested by using human hepatic carcinoma cell line which is transfected stably HCV GT1a, GT1b or GT2a replicon respectively, and resistant cells Y93H, L31F, P32L or I302V and wild-type cells HCV 1b. HCV Replicon System disclosed herein containing Neomycin resistance gene and Luciferase Reporter Gene, the level of HCV replication in host cells is characterized by the expression level of the NEO gene expression level or Luciferase Reporter Gene, and the effects of the compounds herein inhibit HCV replication can be evaluated. In this article, a real-time quantitative polymerase chain reaction (qPCR) method was used to detect NEO gene expression level, and chemiluminescence method was used to test Luciferase Reporter Gene expression level.
(§3) 1. Test Method for Measuring EC50 of the Compounds Base on Luciferase Assay.
(§4) The Huh-7 cells transfected with HCV replicons system were seeded into 96-well plates (8,000 cells in 125 μL/well) respectively; each test compound was diluted to desired concentration using 5-fold serial dilutions protocol, 10 doses in duplicate, and added to wells with POD™ 810 Plate Assembler. […] In this paper, experiments were repeated twice and set the holes without compounds as negative control.
(§5) 2. Test Method for Measuring EC50 of the Compounds by Detecting Antibiotic G418 Resistance Gene NEO Gene.
(§6) In this paper, experiments were repeated twice and set the holes without compounds as negative control.

[2] = tested on: HCV 1a replicon; experiment: HCV GT1a replicon assay in Huh-7 cells; type: cell-based, Hepatitis C virus; details: Hepatitis C virus; Huh-7 cells transfected with HCV replicon, 72 hours incubation; read-out: EC50 against HCV 1a genotype
Protocol: as §1, §2, §3, §4, §5, §6

| Compound | pEC50 [1] | pEC50 [2] |
| --- | --- | --- |
| COC(=O)N[C@H](C(=O)N1CCC[C@H]1c1ncc(-c2ccc(-c3ccc(-c4ccc5nc([C@@H]6CC7CC7N6C(=O)[C@@H](NC(=O)OC)C(C)C)[nH]c(=O)c5c4)c4c3CC3(CCN(C)CC3)C4)cc2)[nH]1)C(C)C (some centres unmarked) [Example 10] | 9.36 | 8.89 |
| COC(=O)N[C@H](C(=O)N1CCC[C@H]1c1ncc(-c2ccc(-c3ccc(-c4ccc5nc([C@@H]6CC7CC7N6C(=O)[C@@H](NC(=O)OC)C(C)C)[nH]c(=O)c5c4)c4c3OC3(CCCC3)O4)cc2)[nH]1)C(C)C (some centres unmarked) [Example 11] | 10.49 | 10.17 |
| COC(=O)N[C@H](C(=O)N1CCC[C@H]1c1ncc(-c2ccc(-c3ccc(-c4ccc5nc([C@@H]6CCCN6C(=O)[C@@H](NC(=O)OC)C(C)C)[nH]c(=O)c5c4)c4c3CC3(CCCC3)C4)cc2)[nH]1)C(C)C [Example 1] | 10.38 | 9.12 |
| COC(=O)NC(C(=O)N1CCC[C@H]1c1ncc(-c2ccc(-c3cc(F)c(-c4ccc5nc([C@@H]6CCCN6C(=O)[C@@H](NC(=O)OC)C(C)C)[nH]c(=O)c5c4)c4c3CC3(CCCC3)C4)nc2)[nH]1)C(C)C (some centres unmarked) [Example 33] | 10.66 | 10.11 |
| COC(=O)N[C@H](C(=O)N1CC(F)(F)CC1c1nc(-c2ccc(-c3ccc(-c4ccc5nc([C@@H]6CC(F)(F)CN6C(=O)[C@@H](NC(=O)OC)C(C)C)[nH]c(=O)c5c4)c4c3CC3(CCOCC3)C4)cc2)c[nH]1)C(C)C (some centres unmarked) [Example 12] | 10.31 | 9.42 |
| COC(=O)NC(C(=O)N1CCCC1C1=Nc2cc(-c3ccc(-c4ccc(-c5cnc(C6CCCN6C(=O)C(NC(=O)OC)C(C)C)[nH]5)cc4)c4c3CC3(CCCC3)C4)ccc2C(C)(C)N1)C(C)C (centres unmarked) [Example 36] | 10.21 | 9.36 |
| COC(=O)N[C@H](C(=O)N1C2CC2C[C@H]1c1ncc(-c2ccc(-c3ccc(-c4ccc5nc([C@@H]6CC7CC7N6C(=O)[C@@H](NC(=O)OC)C(C)C)[nH]c(=O)c5c4)c4c3CC3(CCCC3)C4)cc2)[nH]1)C(C)C (some centres unmarked) [Example 22] | 10.14 | 9.25 |

Reference: US9416139B2, “Spiro ring compound as hepatitis C virus (HCV) inhibitor and uses thereof” (SUNSHINE LAKE PHARMA CO., LTD., priority 2012, dated 2016)
